Experimental data: ChEMBL document CHEMBL4303121, “Human organs-on-chips as tools for repurposing approved drugs as potential influenza and COVID19 therapeutics in viral pandemics” (2020)

Key:
SARS-CoV-2 [1] = experiment: Inhibition of SARS-CoV-2 pseudoparticle entry in Huh-7 cells, assessed by luciferase assay after 72 hrs; format: functional, Homo sapiens; details: Severe acute respiratory syndrome coronavirus 2, Huh-7, 72 h; for inhibition at 1 µM: CONC 1 uM; for inhibition at 5 µM: CONC 5 uM
SARS-CoV-2 [2] = experiment: Inhibition of SARS-CoV-2 pseudoparticle entry in human lung Airway Chip at reported drug Cmax, assessed by qRT-PCR after 48 hrs; format: functional; details: Severe acute respiratory syndrome coronavirus 2, Lung epithelium
[3] = Assessment of cytotoxicity in Huh-7 cells, assessed as % inhibition of cell viability by Celltiter-Glo assay after 48 hrs; format: toxicity, cell-based; details: human, read-out: Inhibition; for cytotoxicity at 48 h, 1 µM: conc 1 uM; for cytotoxicity at 48 h, 5 µM: conc 5 uM

COc1ccc(CCN(C)CCCC(C#N)(c2ccc(OC)c(OC)c2)C(C)C)cc1OC (stereo not drawn)
inhibition at 1 µM (SARS-CoV-2 [1]): 15% | inhibition at 5 µM (SARS-CoV-2 [1]): 50% | inhibition at 0.81 µM (SARS-CoV-2 [2]; CONC 0.81 uM): 10%

CN(C)CCOc1ccc(/C(=C(/CCCl)c2ccccc2)c2ccccc2)cc1 [TOREMIFENE]
inhibition at 1 µM (SARS-CoV-2 [1]): 30% | inhibition at 5 µM (SARS-CoV-2 [1]): 65% | inhibition at 2.98 µM (SARS-CoV-2 [2]; CONC 2.98 uM): 50% | cytotoxicity at 48 h, 1 µM [3]: 1% | cytotoxicity at 48 h, 5 µM [3]: 10%

CCN(CC)CCOc1ccc(C(=C(Cl)c2ccccc2)c2ccccc2)cc1 [CLOMIPHENE]
inhibition at 1 µM (SARS-CoV-2 [1]): 60% | inhibition at 5 µM (SARS-CoV-2 [1]): 80% | inhibition at 0.83 µM (SARS-CoV-2 [2]; CONC 0.83 uM): 30% | cytotoxicity at 48 h, 1 µM [3]: 2% | cytotoxicity at 48 h, 5 µM [3]: 12%

CCCCc1oc2ccccc2c1C(=O)c1cc(I)c(OCCN(CC)CC)c(I)c1 [AMIODARONE]
inhibition at 1 µM (SARS-CoV-2 [1]): 55% | inhibition at 5 µM (SARS-CoV-2 [1]): 70% | inhibition at 20.04 µM (SARS-CoV-2 [2]; CONC 20.04 uM): 20% | cytotoxicity at 48 h, 1 µM [3]: 1% | cytotoxicity at 48 h, 5 µM [3]: 2%

CCOC(=O)c1c(CSc2ccccc2)n(C)c2cc(Br)c(O)c(CN(C)C)c12 [UMIFENOVIR]
inhibition at 1 µM (SARS-CoV-2 [1]): 5% | inhibition at 5 µM (SARS-CoV-2 [1]): 75% | inhibition at 3.89 µM (SARS-CoV-2 [2]; CONC 3.89 uM): 20% | cytotoxicity at 48 h, 1 µM [3]: 1% | cytotoxicity at 48 h, 5 µM [3]: 10%

CCN(CC)Cc1cc(Nc2ccnc3cc(Cl)ccc23)ccc1O [AMODIAQUINE]
inhibition at 1 µM (SARS-CoV-2 [1]): 70% | inhibition at 5 µM (SARS-CoV-2 [1]): 90% | inhibition at 1.24 µM (SARS-CoV-2 [2]; CONC 1.24 uM): 60% | cytotoxicity at 48 h, 1 µM [3]: 1% | cytotoxicity at 48 h, 5 µM [3]: -5%

CCN(CC)CCCC(C)Nc1ccnc2cc(Cl)ccc12 (stereo not drawn) [CHLOROQUINE]
inhibition at 1 µM (SARS-CoV-2 [1]): 50% | inhibition at 5 µM (SARS-CoV-2 [1]): 85% | inhibition at 1.91 µM (SARS-CoV-2 [2]; CONC 1.91 uM): 10% | cytotoxicity at 48 h, 1 µM [3]: 2% | cytotoxicity at 48 h, 5 µM [3]: 3%
